The results in this text go back to ChEMBL document CHEMBL2057066, “Heteroaromatic Moieties in the Sphingosine Backbone of α-Galactosylceramides for Noncovalent Interactions with CD1d” (ACS Med Chem Lett, 2012).

Molecules are shown by their SMILES. Activity calls are given as the source filed them. No cut-off for these calls is given here.

One test relates to Mus musculus. The test can be described thus: Immunomodulatory activity in C57BL/6 mouse serum assessed as IL4 release at 2 ug/ml, iv after 2 to 16 hrs by ELISa. The test is classed as functional, organism-based.
Test [1] deals with iNKT. Nature of the test: Immunomodulatory activity in mouse hepatic mononuclear cells containing iNKT cells assessed as IFNgamma release after 72 hrs by ELISA. It is filed as functional, cell-based. On the technique in general: In an ELISA, binding on a coated surface is turned into a signal by an enzyme label.
In test [2] the test system is iNKT. Nature of the test: Immunomodulatory activity in mouse hepatic mononuclear cells containing iNKT cells assessed as IL4 release after 72 hrs by ELISA. The test is classed as functional, cell-based.
Test [3] deals with iNKT. Nature of the test: Immunomodulatory activity in mouse hepatic mononuclear cells containing iNKT cells assessed as IL4 release at 25 nM after 72 hrs by ELISA. It is filed as functional, cell-based.
The subject of test [4] is iNKT. The test can be described thus: Immunomodulatory activity in mouse hepatic mononuclear cells containing iNKT cells assessed as IFNgamma release at 25 nM after 72 hrs by ELISA. The test is classed as functional, cell-based.

`CCCCCCCCCCCCCCCCCCCCCCCCCC(=O)N[C@@H](CO[C@H]1O[C@H](CO)[C@H](O)[C@H](O)[C@H]1O)[C@H](O)[C@H](O)c1cnn(Cc2ccc(CCCCCC)cc2)c1`: the result in the test on Mus musculus was Active. The Activity result in the test with iNKT [1] and in the test with iNKT [2] was “Dose-dependent effect” in each case.
For the compound `CCCCCCCCCCCCCCCCCCCCCCCCCC(=O)N[C@@H](CO[C@H]1O[C@H](CO)[C@H](O)[C@H](O)[C@H]1O)[C@H](O)[C@H](O)CCCCCCCCCCCCCC`, the outcome with iNKT [3] and in the test with iNKT [4] was Active.
